Assay results as given in publication PMC11791199 (Scientific Reports, 2025).
Entries after “also recorded” stand apart in the source; their conditions may differ.

How the values were obtained:
ClpC1 NTD K85A mutant = ClpC1 NTD K85A mutant (Mycobacterium tuberculosis, UniProt P9WPC9, K85A); format: binding
ClpC1 NTD F80A mutant = ClpC1 NTD F80A mutant (Mycobacterium tuberculosis, UniProt P9WPC9, F80A); format: binding

CC1=C[C@@H](/C=C(\Cl)c2ccc(C(=O)O)cc2)[C@]2(C(=O)O)C=C[C@@H](CCOC(=O)c3ccc(NCc4ccccc4)cc3)C[C@@H]2C1 [F5, (2R,4aR,5S,8aR)-2-(2-((4-(benzylamino)benzoyl)oxy)ethyl)-5-((Z)-2-(4-carboxyphenyl)-2-chlorovinyl)-7-methyl-1,5,8,8a-tetrahydronaphthalene-4a(2H)-carboxylic acid]
binding by ITC (ClpC1 NTD K85A mutant): no binding could be observed; also recorded: no binding was observed | binding by ITC (ClpC1 NTD F80A mutant): no binding could be observed; also recorded: no binding was observed
